{"source": "patent US20210353624A1", "about": "“METHOD OF TREATING CANCER WITH TELOTRISAT OR A PRODRUG THEREOF” (TerSera Therapeutics LLC, priority 2020, published 2021)", "key": {"u5-HIAA": {"system": "u5-HIAA", "assay": "Biomarker changes after TE initiation (TELEACE): u5-HIAA", "type": "in vivo, human", "settings": "n=22", "experimental": "(§1) This example provides the effects of telotristat ethyl treatment on selected patient biomarkers (i.e., u5-HIAA; CgA; 5-HT; and NT-proBNP) in the retrospective, single arm study of Example 4.\n(§2) The average (SD) duration of documented TE treatment was 12.0 (7.3) months with a median (IQR) of 9.0 (6.8, 15.2) months. In many cases, a patient received a TE dosage of 250 mg three times per day.\nThe continuous measures of biomarker values pre- and post-TE initiation were described using mean, SD, median, and IQR. The biomarkers were assessed only among patients with complete biomarker assessment results in both pre-TE and post-TE initiation periods. A Wilcoxon signed rank test was used to calculate P-values for the mean change in biomarker value.\n(§3) Patients with reported biomarker values below, at, or above normal range in pre-TE and post-TE initiation periods were described using proportions and frequencies. The biomarkers were assessed only among patients with complete biomarker assessment results in both pre-TE and post-TE initiation periods. McNemar's test was used to calculate P-values for the differences in paired proportions of patients with values above the upper limit of normal.\nTo evaluate the relationship between the change in biomarker values (i.e., u5-HIAA; CgA; 5-HT) and the change in tumor progression between the pre- and post-TE periods, Pearson's correlation coefficient was used to assess the correlation between biomarker assessments and tumor sizes and to derive the associated P-values. The correlations were assessed only among patients with complete biomarker assessment results in both pre-TE and post-TE initiation periods. The relationship between biomarker values and tumor sizes during pre-TE and post-TE initiation period was presented using scatterplots.\n(§4) For the biomarker results below, the pre-TE initiation period is defined as 12 months before the index date (initiation of TE). The assessment closest to the index date during the pre-TE period was reported for each biomarker.\n(§5) The post-TE initiation period is defined as a period from index date to the earlier of end of treatment with TE or date of chart abstraction. The assessment closest to the date of chart abstraction during the post-TE period was reported for each biomarker.\n(§6) The data includes patients with reported biomarker values, units, and laboratory ranges during pre- and post-TE initiation periods. It excludes patients who had different biomarker units or laboratory ranges reported pre- and post-TE initiation.\n(§7) The normal range was defined by reported laboratory lower limit of normal and upper limit of normal.\nThe values in Table 5-1 have been converted to mg/24 hours based on the following conversion rate: […]. The Wilcoxon signed rank test was used to calculate P-values for the mean change in biomarker values pre- and post-TE initiation.\nTable 5-4 is based on patients who had complete biomarker assessment results (u5-HIAA: N=22; 5-HT: N=22) in both pre-TE and post-TE initiation periods. Correlation analysis was not conducted for CgA and NT-proBNP due to small sample sizes for CgA (n=15) and NT-proBNP (n=2). Pearson's correlation coefficient was used to assess the correlation between biomarker assessments and tumor sizes and to derive the associated P-values. Values have been converted to mg/24 hours based on the following conversion rate: […]."}, "[1]": {"system": "human intrahepatic CCA cells CCLP-1", "assay": "Tumor growth study in CCLP-1 subcutaneous xenografts", "type": "in vivo, NOD/SCID mice", "method": "(§10) The human intrahepatic CCA cells CCLP-1 were cultured in DMEM containing 10% FBS. Animal survival was studied in a peritoneal dissemination model, and a tumor growth study was performed in subcutaneous xenografts using 4-6 weeks old female NOD/SCID mice by injecting 10×10^6 CCLP-1 cells per mouse. Ten days after tumor cell injection, mice were randomized (n=4-7) to receive PBS (control), gemcitabine (50 mg/kg, 2×wk), cisplatin (2.5 mg/kg, 2×wk survival study, 1×wk tumor growth study), nab-paclitaxel (5 mg/kg, 2×wk) or telotristat ethyl (100 mg/kg, 5×wk), for two weeks. In the survival study, mice were monitored daily and euthanized when moribund, and survival was measured from the first day of treatment until death. In the tumor growth study, tumor size was measured twice per week and tumor volume was measured using the formula V=½ (L×W2, with L=length and W=width). Comparative statistics utilized one-way ANOVA, Student's t-test and logrank methods."}, "CgA": {"system": "CgA", "assay": "Biomarker changes after TE initiation (TELEACE): CgA", "type": "in vivo, human", "settings": "n=15", "experimental": "as §1, §2, §3, §4, §5, §6, §7\nMcNemar's test could not be performed because all patients had CgA value above normal range pre-TE initiation."}, "colon cancer (HT-29)": {"system": "colon cancer (HT-29)", "assay": "Cell confluence of tumor cell line grown with telotristat ethyl", "type": "cell-based", "settings": "HT-29 cells; 0, 5, 15 and 30 μM telotristat ethyl; 24 to 96 hours; impact ranked between 94T778 and TFK-1", "experimental": "(§8) This example provides experiments assessing the effects of telotristat ethyl on three aggressive cancer cell lines—liposarcoma (94T778), colon cancer (HT-29), and cholangiocarcinoma (TFK-1)—and three “normal” cell lines—fallopian tube epithelium (FT240), ovarian surface epithelium (OSE22), and first trimester placental fibroblasts (FTP).\n(§9) The cells were grown with 0, 5, 15 and 30 μM telotristat ethyl, plated into four-chambered slides with an initial confluence of at least 30%, and cultured for 24 to 96 hours. At the end of each 24-hour period, cell density was measured with hematoxylin, and the presence of 5-HT was assessed by immunohistochemistry. Experiments were performed in triplicate. Cell confluence was determined, and the 5-HT expression was recorded as an H-score."}, "liposarcoma (94T778)": {"system": "liposarcoma (94T778)", "assay": "Cell confluence of tumor cell line grown with telotristat ethyl", "type": "cell-based", "settings": "94T778 cells; 0, 5, 15 and 30 μM telotristat ethyl; 24 to 96 hours; confluence decreased progressively with concentration", "experimental": "as §8, §9"}, "[2]": {"system": "human intrahepatic CCA cells CCLP-1", "assay": "Animal survival in CCLP-1 peritoneal dissemination model", "type": "in vivo, NOD/SCID mice", "settings": "two weeks therapy: gemcitabine 50 mg/kg 2×wk, cisplatin 2.5 mg/kg 2×wk, nab-paclitaxel 5 mg/kg 2×wk, telotristat ethyl 100 mg/kg 5×wk, controls 47 days", "method": "as §10"}}, "data": [{"smiles": "CCOC(=O)[C@@H](N)Cc1ccc(-c2cc(O[C@H](c3ccc(Cl)cc3-n3ccc(C)n3)C(F)(F)F)nc(N)n2)cc1", "note": "[telotristat ethyl, (S)-ethyl 2-amino-3-(4-(2-amino-6-((R)-1-(4-chloro-2-(3-methyl-1H-pyrazol-1-yl)phenyl)-2,2,2-trifluoroethoxy)pyrimidin-4-yl)phenyl)propanoate]", "values": [{"measurement": "u5-HIAA Below normal range Post-TE, n (%)", "setting": "u5-HIAA; pre-TE 0 (0)", "value": "0 (0) n (%)"}, {"measurement": "u5-HIAA At normal range Post-TE, n (%)", "setting": "u5-HIAA; pre-TE 1 (4.5)", "value": "2 (9.1) n (%)"}, {"measurement": "u5-HIAA Above normal range Post-TE, n (%)", "setting": "u5-HIAA; pre-TE 21 (95.5), P=0.317", "value": "20 (90.9) n (%)"}, {"measurement": "u5-HIAA Measurement (mg/24 hours) Post-TE Initiation, Median (IQR)", "setting": "u5-HIAA; pre-TE 42.0 (25.0, 65.0)", "value": "25.0 (16.0, 44.0) mg/24 hours"}, {"measurement": "u5-HIAA Measurement (mg/24 hours) Post-TE Initiation, Mean ± SD", "setting": "u5-HIAA; pre-TE 72.5 ± 98.0, P<0.001", "value": "43.6 ± 54.7", "unit": "mg/24 hours"}, {"measurement": "tumor weight at the completion of therapy", "setting": "[1]; controls 0.187 g", "value": 0.091, "unit": "g"}, {"measurement": "net tumor growth", "setting": "[1]; gemcitabine 50 mg/kg 2×wk, cisplatin 2.5 mg/kg 1×wk, nab-paclitaxel 5 mg/kg 2×wk, telotristat ethyl 100 mg/kg 5×wk, two weeks, controls 199 mm^3", "value": 93, "unit": "mm^3"}, {"measurement": "patients with CgA above normal range pre-TE who had normal CgA value post-TE initiation", "setting": "CgA", "value": "~30", "unit": "%"}, {"measurement": "CgA At normal range Post-TE, n (%)", "setting": "CgA; pre-TE 0 (0)", "value": "4 (26.7) n (%)"}, {"measurement": "CgA Below normal range Post-TE, n (%)", "setting": "CgA; pre-TE 0 (0)", "value": "0 (0) n (%)"}, {"measurement": "CgA Above normal range Post-TE, n (%)", "setting": "CgA; pre-TE 15 (100.0)", "value": "11 (73.3) n (%)"}, {"measurement": "cell confluence", "setting": "colon cancer (HT-29)", "value": "between these two"}, {"measurement": "cell confluence", "setting": "liposarcoma (94T778)", "value": "most impacted"}, {"measurement": "animal survival", "setting": "[2]", "value": 52, "unit": "days"}]}]}
